Measured values: patent US20240082406A1, “BENZOHETEROCYCLE SUBSTITUTED TETRAHYDROISOQUINOLINE COMPOUND” (SHANGHAI JEMINCARE PHARMACEUTICAL CO., LTD, priority 2020, published 2024)

Assays:
NHE3 [1] = target: T1, NHE3 (UniProt P48764); assay: Cell-based NHE3 activity under persistent conditions (60 min pre-incubation, compound removed); parameters: species or system Rat or Human; details: opossum kidney cells expressing NHE3, read-out: Cell-based NHE3 inhibition IC50 (uM) under persistent conditions
T1 sequence (P48764 1-834): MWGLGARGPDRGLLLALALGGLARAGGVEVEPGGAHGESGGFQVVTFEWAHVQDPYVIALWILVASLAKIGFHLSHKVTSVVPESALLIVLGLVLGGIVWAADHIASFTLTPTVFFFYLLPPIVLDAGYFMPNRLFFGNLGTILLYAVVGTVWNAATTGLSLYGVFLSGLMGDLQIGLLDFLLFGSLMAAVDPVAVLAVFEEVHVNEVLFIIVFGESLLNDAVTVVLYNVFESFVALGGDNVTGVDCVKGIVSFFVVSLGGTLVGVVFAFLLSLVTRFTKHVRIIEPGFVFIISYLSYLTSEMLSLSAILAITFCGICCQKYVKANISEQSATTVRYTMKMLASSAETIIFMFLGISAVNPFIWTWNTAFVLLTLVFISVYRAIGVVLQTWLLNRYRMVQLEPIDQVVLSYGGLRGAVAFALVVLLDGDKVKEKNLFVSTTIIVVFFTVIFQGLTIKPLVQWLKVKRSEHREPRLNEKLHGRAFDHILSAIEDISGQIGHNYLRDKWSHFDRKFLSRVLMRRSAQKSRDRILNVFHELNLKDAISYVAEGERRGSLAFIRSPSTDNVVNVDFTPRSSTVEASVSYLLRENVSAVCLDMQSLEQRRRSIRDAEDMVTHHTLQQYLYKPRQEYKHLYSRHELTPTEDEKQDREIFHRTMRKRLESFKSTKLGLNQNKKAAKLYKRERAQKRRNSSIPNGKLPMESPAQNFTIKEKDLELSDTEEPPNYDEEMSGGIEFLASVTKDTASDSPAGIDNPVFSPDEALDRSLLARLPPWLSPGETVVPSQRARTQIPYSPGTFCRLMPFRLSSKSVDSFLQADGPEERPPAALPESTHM
Source text: (§1) Opossum kidney (OK) cells were obtained from ATCC and cultured and expanded according to its instructions. OK monoclonal stable cell lines expressing the Rat NHE3 (Gene Bank registration number: M85300) protein and OK monoclonal stable cell lines expressing the Human NHE3 (Gene Bank registration number: NM_004174.1) protein were constructed by lentivirus infection.
The general procedure of the cell-based NHE3 activity assay under persistent conditions (persistent inhibition) was: Rat NHE3 OK monoclonal cells or Human NHE3 OK monoclonal cells were inoculated into 384-well plates and grew overnight. The medium was aspirated from the wells and the cells were washed twice with FLIPR buffer (Hank's BSS 1×, 20 mM HEPES, 1% BSA) followed by the addition of Na-HEPES buffer containing […] test compound (100 mM NaCl, 50 mM HEPES, 10 mM glucose, 5 mM KCl, 2 mM CaCl2, 1 mM MgCl2, pH 7.4) and incubated for 60 minutes at room temperature. The compounds were aspirated from the wells and incubated with FLIPR buffer (Hank's BSS 1×, 20 mM HEPES, 1% BSA) containing […] BCECF-AM (Invitrogen) for 45 minutes at room temperature. Subsequently, […] of 200 mM NH4Cl-HEPES buffer (Hank's BSS 1×, 20 mM HEPES, 200 mM NH4Cl) was added and incubated for 15-20 minutes at room temperature. The cells were washed twice with 20 mM NH4Cl-HEPES buffer (Hank's BSS 1×, 20 mM HEPES, 20 mM […]). […] Ratio=fluorescence value (λex 490 nm)/fluorescence value (λex 440 nm) was set, the average value of the Ratio difference between the end time and the start time between the duplicate wells was calculated, the average value and the concentration value of the compound were drawn, and the dose-response-inhibition (four parameters) equation was used to estimate EC50 value by GraphpadPrism.

NHE3 [2] = target: T1, NHE3; assay: Cell-based NHE3 activity under transient conditions (BCECF-AM intracellular pH, FLIPR); parameters: species or system Rat or Human; details: embodiment compounds, opossum kidney cells expressing NHE3, read-out: Cell-based NHE3 inhibition IC50 (uM) under transient conditions
Source text: as §1
The general procedure of the cell-based NHE3 activity experiments under transient conditions (transient inhibition) was based on an adaptation method of the pH-sensitive dye method originally reported by Tisen (Proc. Natl. Acad. Sci. USA) (1984) 81(23):7436-7440) to measure rat NHE3-mediated Na+-dependent reverse H+ transport, and was optimized according to the instructions “Measuring Intracellular pH With the FLIPR and FLIPR 384 Fluorometric Imaging Plate Reader Systems” published by Molecular Devices. The specific method was: Rat NHE3 OK monoclonal cells or Human NHE3 OK monoclonal cells were inoculated into 384-well plates and grew overnight. The medium was aspirated from the wells and the cells were washed twice with FLIPR buffer (Hank's BSS 1×, 20 mM HEPES, 1% BSA) followed by incubation with FLIPR buffer (Hank's BSS 1×, 20 mM HEPES, 1% BSA) containing […] BCECF-AM (Invitrogen) for 45 min at room temperature. Subsequently, […] of 200 mM NH4Cl-HEPES buffer (Hank's BSS 1×, 20 mM HEPES, 200 mM NH4Cl) was added and the cells were incubated for 15-20 minutes at room temperature. Cells were washed twice with 20 mM NH4Cl-HEPES buffer (Hank's BSS 1×, 20 mM HEPES, 20 mM NH4Cl). NHE3-mediated pH sensitization in cells was normalized by addition of containing 0.4 mM amiloride (EIPA) and […] test compound or Na-HEPES buffer (100 mM NaCl, 50 mM HEPES, 10 mM glucose, 5 mM KCl, 2 mM CaCl2), 1 mM MgCl2, pH 7.4) and monitoring of BCECF-AM fluorescence at λem 535 nm excitated by λex 440 nm and λex 490 nm respectively. Ratio=fluorescence value (λex 490 nm)/fluorescence value (λex 440 nm) was set, the average value of the Ratio difference between the end time and the start time between the duplicate wells was calculated, the average value and the concentration value of the compound were drawn, and Graphpad Prism software was used to estimate IC50 value.

Row | IC50 (NHE3 [1]) [µM] | IC50 (NHE3 [2]) [µM] | Structure (SMILES)
1 | 0.02 | 0.52 | CN1Cc2c(Cl)cc(Cl)cc2C(c2ccc3c(c2)C(=O)N(CCOCCOCCNC(=O)NCCCCNC(=O)NCCOCCOCCN2Cc4ccc(C5CN(C)Cc6c(Cl)cc(Cl)cc65)cc4C2=O)C3)C1 (stereo not drawn) [Embodiment B1]
2 | 0.08 | 0.26 | CN1Cc2c(Cl)cc(Cl)cc2C(c2ccc3c(c2)C(=O)N(CCOCCOCCOCCNC(=O)[C@@H](O)[C@@H](O)C(=O)NCCOCCOCCOCCN2Cc4ccc(C5CN(C)Cc6c(Cl)cc(Cl)cc65)cc4C2=O)C3)C1 (stereo partly drawn) [Embodiment J3]
3 | 3.61 | 2.33 | CN1Cc2c(Cl)cc(Cl)cc2C(c2ccc3cnn(CCOCCOCCNC(=O)NCCCCNC(=O)NCCOCCOCCn4ncc5ccc(C6CN(C)Cc7c(Cl)cc(Cl)cc76)cc54)c3c2)C1 (stereo not drawn) [Embodiment D1-P2]
4 | 0.64 | 0.91 | CN1Cc2c(Cl)cc(Cl)cc2C(c2ccc3c(c2)C(=O)N(CCOCCOCCNC(=O)CN(CCN(CC(=O)O)CC(=O)NCCOCCOCCN2Cc4ccc(C5CN(C)Cc6c(Cl)cc(Cl)cc65)cc4C2=O)CC(=O)O)C3)C1 (stereo not drawn) [Embodiment F1]
5 | 0.41 | 0.77 | CN1Cc2c(Cl)cc(Cl)cc2C(c2ccc3c(c2)C(=O)N(CCOCCOCCNC(=O)NCCCCNC(=O)NCCOCCOCCN2CCc4ccc(C5CN(C)Cc6c(Cl)cc(Cl)cc65)cc4C2=O)CC3)C1 (stereo not drawn) [Embodiment B3]
6 | 0.59 | 0.22 | CN1Cc2c(Cl)cc(Cl)cc2C(c2ccc3c(c2)S(=O)(=O)N(CCOCCOCCNC(=O)NCCCCNC(=O)NCCOCCOCCN2CCc4ccc(C5CN(C)Cc6c(Cl)cc(Cl)cc65)cc4S2(=O)=O)CC3)C1 (stereo not drawn) [Embodiment C1]
